The record followed here is patent US7531668B2, “2-arylcarboxamide-nitrogenous heterocycle compound” (Banyu Pharmaceutical Co., Ltd., priority 2004, dated 2009).

The structures appear in SMILES notation. Structures can show the parent of a compound that is named as a salt.

T1 sequence (Q99705 whole entry): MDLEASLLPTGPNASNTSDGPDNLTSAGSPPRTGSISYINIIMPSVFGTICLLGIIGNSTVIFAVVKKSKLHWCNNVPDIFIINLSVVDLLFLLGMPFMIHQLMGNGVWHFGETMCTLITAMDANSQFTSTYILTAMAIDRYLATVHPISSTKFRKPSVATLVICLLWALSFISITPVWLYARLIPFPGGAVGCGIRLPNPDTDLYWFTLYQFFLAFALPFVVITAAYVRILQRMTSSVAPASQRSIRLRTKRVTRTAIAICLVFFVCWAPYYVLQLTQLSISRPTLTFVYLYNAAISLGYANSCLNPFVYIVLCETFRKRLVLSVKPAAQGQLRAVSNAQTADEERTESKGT

The test concerns the target T1, human MCH-1R (Homo sapiens, UniProt Q99705).
T1 construct: expressed in transfected cells; host or cells: CHO-K1 (American Type Culture Collection), vector pEF/mic/cyto (Invitrogen)
The experiment in a line: MCH binding inhibition test ([125I]MCH binding to membranes of MCH-1R expressing CHO-K1 cells). As to conditions: 50% inhibition concentration to the specific [125I]MCH binding; 50 pM [125I]MCH, membranes of MCH-1R expression CHO-K1 cells, 25° C., one hour, pH 7.4. The text has this: Pharmacological Test Example 1 (MCH Binding Inhibition Test)
A human MCH-1R encoding cDNA sequence [FEBS Letters, Vol. 398, 253 (1996); Biochimica et Biophisica Acta, Vol. 1401, 216 (1998)] was cloned to a plasmid vector pEF/mic/cyto (Invitrogen Corporation). The obtained expression vector was transfected to host cells CHO-K1 (American Type Culture Collection) using Lipofectamine Plus Reagent (Life Technology Inc.) to provide MCH-1R expression cells.
Membrane samples prepared from the MCH-1R expression cells were incubated with each test compound and 50 pM of [^125I]MCH (NEN Co.), in an assay buffer (50 mM Tris buffer comprising 10 mM magnesium chloride, 2 mM ethylenediamine tetraacetate, 0.01% bacitracin and 0.2% bovine serum albumin; pH 7.4) at 25° C. for an hour, followed by filtration through a glass filter GF/C (Wattman Co.). After washing the glass filter with 50 mM Tris buffer (pH 7.4) comprising 10 mM magnesium chloride, 2 mM ethylenediamine tetraacetate and 0.04% Tween-20, the radioactive activity on the glass filter was measured. The non-specific binding was measured in the presence of 1 μM human MCH and 50% inhibition concentration (IC50 value) of each test compound to the specific [^125I,]MCH binding was determined.
`COCCN(C)Cc1ccc(NC(=O)c2cc3cc(OCc4ccccc4)ccc3[nH]2)cc1` [Example 2-10, 5-(benzyloxy)-N-(4-{[(2-methoxyethyl)(methyl)amino]methyl}phenyl)-1H-indole-2-carboxamide] had a 50% inhibitory concentration (IC50) of 4.6 nM.
The result for `CCN(CC)Cc1ccc(NC(=O)c2cc3cc(OCc4ccccc4)ccc3[nH]2)cc1` [Example 1-3, 5-(benzyloxy)-N-{4-[(diethylamino)methyl]phenyl}-1H-indole-2-carboxamide] reads 5.6 nM; that for `O=C(Nc1ccc(CN2CCCC2)cc1)c1cc2cc(OCc3ccccc3)ccc2[nH]1` [Example 2-6, 5-(benzyloxy)-N-[4-(1-pyrrolidinylmethyl)phenyl]-1H-indole-2-carboxamide trifluoroacetate], 2.6 nM; that for `O=C(Nc1ccc(CN2CCOCC2)cc1)c1cc2cc(OCc3ccccc3)ccc2[nH]1` [Example 1-1, 5-(benzyloxy)-N-[4-(morpholinomethyl)phenyl]-1H-indole-2-carboxamide hydrochloride], 9.6 nM.
